According to US6982252B2, “Inhibition of vacuolar proton ATPase activity and/or the modulation of acidic organelle function sensitizes cells to radiation, chemotherapy and biological agents” (Memorial Sloan-Kettering Cancer Center, priority 2000, dated 2006):
“And” between values parts separate entries of the source, which are not always exact repeats. Equal values may be shown once.

Columns and labels:
[1] = system: MCF-7 (human breast adenocarcinoma); assay: Clonogenic survival (surviving fraction) of MCF-7 cells after radiation or chemotherapeutic agent; assay type: cell-based
Experimental: (§1) MCF-7 (human breast adenocarcinoma), LoVo (human colon adenocarcinoma) and LNCaP (human prostate carcinoma) were obtained from the American Type Culture Collection. Cells were maintained as described in Paglin et al., 1997, Biochem. Biophs. Res. Comm. 237:678-684). Irradiation was carried out 48 hours post-plating (T0) at room temperature using a Cs-137 irradiator (Sheperd Mark-I, model 68, SN643) at a dose rate of 2.43-2.32 Gy/min. Bovine aortic endothelial cells were grown and treated with H2O2 as described in Haimovitz-Friedman et al., 1994, J. Exp. Med. 180:525-535 and Verhij et al., 1996, Nature 380:75-79. Phorbol 12-myristate 13-acetate (PMA; Alexis Biochemicals Corp., San Diego, Calif.) was dissolved in dimethyl sulfoxide (DMSO) and added to cells for the duration of one hour. The final DMSO concentration was 0.03%. The cells were then rinsed with warm growth medium before being returned to the incubator for an additional 48 hours.
(§2) Cells were plated in growth medium at a density of 30-90 cells per square centimeter and irradiated 22 hours later. Each experimental condition was done in quintet or triplicate. Cells were irradiated at room temperature in Cs-137 Irradiator (Sheperd Mark-I, Model 68, SN 643) at a rate of 2.43-2.32 Gy/min. […] For determination of their red to green ratio, colonies were processed as described above. For determination of surviving fractions cells were stained with crystal violet and colonies containing 50 cells or more were counted with a dissecting microscope. The surviving fraction was defined as the ratio between the plating efficiencies of irradiated and non-irradiated cells and was calculated at each dose level according to Hall and Phill (1994, […] for the Radiologist, 4th Edition, J. Lippincott Co., Philadelphia).

[2] = system: LoVo (human colon adenocarcinoma); assay: Clonogenic survival (surviving fraction) of LoVo cells after radiation or chemotherapeutic agent; assay type: cell-based
Experimental: as §1, §2

[3] = Bafilomycin A1 8 nM, no radiation

**Q.** Which results are given for bafilomycin A1?
**A.** reduction of survival of irradiated cells ([1]; 2 nM bafilomycin A1, 300 cGy, two separate experiments): 45% and 32%; Surviving fraction in the presence of Baf A1 (2nM) ([1]; Baf A1 2nM added at irradiation for 24 hours, 2 Gy): 0.51 ± 0.07; Surviving fraction in the presence of Baf A1 (2nM) ([1]; Baf A1 2nM added at irradiation for 24 hours, 3 Gy): 0.23 ± 0.05; Surviving fraction in the presence of Baf A1 (2nM) ([1]; Baf A1 2nM for 24 hours, 0 Gy, listed as Baf A1): 0.9 ± 0.14; Surviving fraction in the presence of Baf A1 (2nM) ([1]; Baf A1 2nM for 24 hours, 0 Gy, listed as bafilomycin A1): without significantly affecting; Normalized Surviving Fraction ([1]; Bafilomycin A1 8 nM, 2 Gy): 0.47; Plating Efficiency ([1]; Bafilomycin A1 8 nM, 2 Gy): 43 ± 7.7; Surviving Fraction ([1]; Bafilomycin A1 8 nM, 2 Gy): 0.26; Normalized Surviving Fraction ([1]; Bafilomycin A1 8 nM, 4 Gy): 0.11; Plating Efficiency ([1]; Bafilomycin A1 8 nM, 4 Gy): 21 ± 3.4; Surviving Fraction ([1]; Bafilomycin A1 8 nM, 4 Gy): 0.06; Normalized Surviving Fraction ([1]; Bafilomycin A1 8 nM, 6 Gy): 0.23; Plating Efficiency ([1]; Bafilomycin A1 8 nM, 6 Gy): 7 ± 3; Surviving Fraction ([1]; Bafilomycin A1 8 nM, 6 Gy): 0.01; Normalized Surviving Fraction [1, 3]: 1; Plating Efficiency [1, 3]: 98 ± 12; Surviving Fraction [1, 3]: 0.59; decrease of survival ([1]; MCF-7, 2 nM bafilomycin, 100 nM adriamycin): 34%; Surviving Fraction ([1]; Table 4, 2 nM bafilomycin A1, 2 Gy): 0.51 ± 0.07; Surviving Fraction ([1]; Table 4, 2 nM bafilomycin A1, 4 Gy): 0.17 ± 0.02; Surviving Fraction ([1]; Table 4, 2 nM bafilomycin A1, 6 Gy): 0.02 ± 0.003; decrease of survival following irradiation ([1]; Table 4, 2 nM bafilomycin A1, 200 cGy): 27%; decrease of survival following irradiation ([1]; Table 4, 2 nM bafilomycin A1, 400 cGy): 37%; decrease of cell survival following irradiation ([1]; Table 5, 2 nM bafilomycin A1, 200 cGy): 19%; decrease of cell survival following irradiation ([1]; Table 5, 2 nM bafilomycin A1, 400 cGy): 13%; Surviving Fraction ([1]; Table 5, 2 nM bafilomycin A1, Radiation Dose (cGy) 0): 1 ± 0.07; Surviving Fraction ([1]; Table 5, 2 nM bafilomycin A1, Radiation Dose (cGy) 2): 0.57 ± 0.04; Surviving Fraction ([1]; Table 5, 2 nM bafilomycin A1, Radiation Dose (cGy) 4): 0.27 ± 0.01; Surviving Fraction ([1]; Table 5, 2 nM bafilomycin A1, Radiation Dose (cGy) 6): 0.05 ± 0.01; reduction of survival ([1]; Table 6, 2 nM bafilomycin, 3 Gy): 37%; Surviving Fraction ([1]; Table 6, 2 nM bafilomycin, X radiated 3 Gy): 0.28 ± 0.03; Surviving Fraction ([1]; Table 6, 4 nM bafilomycin, C non-irradiated control): 0.7 ± 0.03; Surviving Fraction ([1]; Table 6, 4 nM bafilomycin, X radiated 3 Gy): 0.2 ± 0.03; Surviving Fraction ([1]; Table 6, 8 nM bafilomycin, C non-irradiated control): 0.66 ± 0.05; Surviving Fraction ([1]; Table 6, 8 nM bafilomycin, X radiated 3 Gy): 0.14 ± 0.02; Surviving Fraction ([1]; Table 6, 16 nM bafilomycin, C non-irradiated control): 0.52 ± 0.05; Surviving Fraction ([1]; Table 6, 16 nM bafilomycin, X radiated 3 Gy): 0.12 ± 0.03; Surviving Fraction ([1]; Table 7, 2 nM bafilomycin A1, C non-irradiated): does not significantly affect; Surviving Fraction ([1]; Table 7, 2 nM bafilomycin A1, C non-irradiated, listed as bafilomycin Al): 0.92 ± 0.06; Surviving Fraction ([1]; Table 7, 2 nM bafilomycin A1, X radiated 3 Gy): 0.22 ± 0.04; reduction of cell survival ([1]; Table 7, 2 nM bafilomycin, 300 cGy): 49%; Surviving Fraction ([1]; Table 7, 4 nM bafilomycin A1, C non-irradiated): 0.79 ± 0.04; Surviving Fraction ([1]; Table 7, 4 nM bafilomycin A1, X radiated 3 Gy): 0.16 ± 0.04; Surviving Fraction ([1]; Table 7, 8 nM bafilomycin A1, C non-irradiated): 0.60 ± 0.08; Surviving Fraction ([1]; Table 7, 8 nM bafilomycin A1, X radiated 3 Gy): 0.12 ± 0.02; Surviving Fraction ([1]; Table 7, 16 nM bafilomycin A1, C non-irradiated): 0.35 ± 0.05; Surviving Fraction ([1]; Table 7, 16 nM bafilomycin A1, X radiated 3 Gy): 0.09 ± 0.04; survival (head of column empty) ([1]; Table 15, MCF-7, Bafilomycin 2 nM alone): 0.95 ± 0.1; survival, column Adriamycin ([1]; Table 15, MCF-7, Bafilomycin 4 nM + 100 nM adriamycin): 0.35 ± 0.05; survival (head of column empty) ([1]; Table 15, MCF-7, Bafilomycin 4 nM alone): 0.61 ± 0.05; cell survival, Bafilomycin A1 (2 nM) ([1]; Table 18, MCF-7, Bafilomycin A1 2 nM + Etoposide 0.05 μg/ml): 0.36 ± 0.08; reduction of the surviving fraction ([1]; bafilomycin A1 for 24 hours following irradiation with 2 and 3 Gy): 30%-40%; decrease of survival of cells exposed to Adriamycin ([2]; 2 nM bafilomycin, 100 nM Adriamycin): 22%; decrease of survival ([2]; 2 nM bafilomycin, 3 Gy, Table 11 and Table 12): 43% and 24%; decrease of resistance to Adriamycin ([2]; 2 nM bafilomycin, Adriamycin 100 nM, 48 hours): 35%; decrease of survival ([2]; 2 nm bafilomycin A1, 2 Gy): 25%; decrease of survival ([2]; 2 nm bafilomycin A1, 3 Gy): 30%; Surviving Fraction 0 Gy ([2]; Table 11, Bafilomycin A1 2 nM): 1.14 ± 0.09; Surviving Fraction 3 Gy ([2]; Table 11, Bafilomycin A1 2 nM, 3 Gy): 0.24 ± 0.08; Surviving Fraction 0 Gy ([2]; Table 11, Bafilomycin A1 4 nM): 1.01 ± 0.03; Surviving Fraction 3 Gy ([2]; Table 11, Bafilomycin A1 4 nM, 3 Gy): 0.23 ± 0.02; Surviving Fraction 0 Gy ([2]; Table 11, Bafilomycin A1 8 nM): 0.84 ± 0.12; Surviving Fraction 3 Gy ([2]; Table 11, Bafilomycin A1 8 nM, 3 Gy): 0.19 ± 0.04; Surviving Fraction 0 Gy ([2]; Table 12, Bafilomycin 2 nM): 0.92 ± 0.05; Surviving Fraction 3 Gy ([2]; Table 12, Bafilomycin 2 nM, 3 Gy): 0.16 ± 0.01; Surviving Fraction 0 Gy ([2]; Table 12, Bafilomycin 4 nM): 0.84 ± 0.03; Surviving Fraction 3 Gy ([2]; Table 12, Bafilomycin 4 nM, 3 Gy): 0.08 ± 0.02; Surviving Fraction 2 nM Bafilomycin ([2]; Table 13, 2 nM Bafilomycin, Dose 0 Gy): 0.78 ± 0.05; Surviving Fraction 2 nM Bafilomycin ([2]; Table 13, 2 nM Bafilomycin, Dose 2 Gy): 0.24 ± 0.03; Surviving Fraction 2 nM Bafilomycin ([2]; Table 13, 2 nM Bafilomycin, Dose 3 Gy): 0.11 ± 0.03; Surviving Fraction 2 nM Bafilomycin ([2]; Table 14, 2 nM Bafilomycin + Adriamycin 50 nM): 0.73 ± 0.08; Surviving Fraction 2 nM Bafilomycin ([2]; Table 14, 2 nM Bafilomycin + Adriamycin 100 nM): 0.60 ± 0.05; Surviving Fraction 2 nM Bafilomycin ([2]; Table 14, 2 nM Bafilomycin + Adriamycin 150 nM): 0.38 ± 0.03; Surviving Fraction 2 nM Bafilomycin ([2]; Table 14, 2 nM Bafilomycin, Adriamycin 0 nM): 0.93 ± 0.05; survival, Adriamycin 100 nM ([2]; Table 17, Bafilomycin A1 2 nM + Adriamycin 100 nM, 48 hours): 0.65 ± 0.05; survival (head of column empty) ([2]; Table 17, Bafilomycin A1 2 nM alone, 48 hours): 0.86 ± 0.04; survival, Adriamycin 100 nM ([2]; Table 17, Bafilomycin A1 4 nM + Adriamycin 100 nM, 48 hours): 0.4 ± 0.01; survival (head of column empty) ([2]; Table 17, Bafilomycin A1 4 nM alone, 48 hours): 0.61 ± 0.04; cell survival, Bafilomycin (2 nM) ([2]; Table 19, Bafilomycin 2 nM + Etoposide 0.05 μg/ml): 0.59 ± 0.08; cell survival, Bafilomycin (2 nM) ([2]; Table 19, Bafilomycin 2 nM, Etoposide 0 μg/ml): 1.16 ± 0.07; decrease of survival in the presence of etoposide ([2]; bafilomycin 2 nM, etoposide 0.05 μg/ml): 25%
